Test system: MCF-7 cells
Test: MCF-7 Estrogen Dependent Proliferation Assay
Format: cell-based
Conditions: Homo sapiens, MCF7, addition to Estrogen Depleted Media (EDM), read-out: EC50 of growth stimulation of MCF-7 cells
Source text: MCF-7 cells (ATCC #HTB-22) are human mammary gland adenocarcinoma cells that require estrogen for growth. The growth media (GM) for the MCF-7 cells is Minimum Essential Media (without phenol red) supplemented with fetal bovine serum (FBS) to 10%. The FBS serves as the sole source of estrogen and this GM supports the full growth of the cells and is used for the routine growth of the cell cultures. When MCF-7 cells are placed in a media in which 10% Charcoal-Dextran treated fetal bovine serum (CD-FBS) is substituted for FBS, the cells will cease to divide but will remain viable. […] The addition of estradiol to EDM stimulates the growth of the MCF-7 cells in a dose dependent manner with an EC50 of 2 pM. Growing MCF-7 cells are washed several times with EDM and the cultures then maintained in EDM for a minimum of 6 days in order to deplete the cells of endogenous estrogen. […] At this point, the culture supernatants are aspirated, the cells washed 2× with PBS, the wash solution aspirated and the protein content of each well determined. Each drug dilution is evaluated on a minimum of 5 wells and the range of dilution of the test compounds in the assay is 0.001 nM to 1000 nM. […] The assay is terminated at day 8–10 when the appropriate controls reach 80–90% confluency and the protein content of each well is determined as above.

EC50: 2 pM
SMILES: C[C@]12CC[C@@H]3c4ccc(O)cc4CC[C@H]3[C@@H]1CC[C@@H]2O [estradiol]
